How the values were obtained:
AP-1 [1] = experiment: EMSA, nuclear extracts of J-27 T cells, binding to CD95L promoter AP-1 site; type: cell-based; details: J-27 nuclear extracts, PMA/ionomycin 2 h, 50 µM vitamin E added 1 h before induction (Fig. 3A)
Protocol: (A)^32P-labeled oligonucleotides containing the CD95L NF-κB (at the promoter -530 and -50 region) (Li-Weber et al., Eur. J. Immunol. 30 (2000), 661) and AP-1 (at the promoter +90 region) (Eichhorst et al., Mol. Cell. Biol. 20 (2000), 7826) binding sequences were analyzed by EMSA as described (Li-Weber et al., (2000). The EMSA probes had the following sequences: • CD95L NF-κB at-530: 5'-[…]-3' • CD95L NF-κB at-50: 5'-[…]-3' • CD95L AP-1 at +90: 5'-[…]-3'
Nuclear extracts were prepared from J-27 T cells either non-induced (-) or induced (+) for 2 h by PMA (10 ng/ml) and ionomycin (0.5 µM) in the absence (-) or presence (+) of 50 µM vitamin E (VE) (added 1 h before induction). The inducible complex corresponding to NF-κB and AP-1 were indicated. A NF-Y binding oligonucleotide 5'[…]-3' was used for equal loading of nuclear extracts.
It was investigated whether vitamin E affects NF-KB and AP-1 binding to the CD95L promoter target sites. Nuclear extracts were prepared from J-27 T cells stimulated in the presence or absence of vitamin E. The NF-κB and AP-1 binding sites contained in the CD95L promoter were used as probes in an electrophoretic-mobility-shift-assay (EMSA). Stimulation of T cell with PMA and ionomycin induced binding of nuclear factors to the NF-κB and AP-1 sites of the CD95L promoter (Fig. 3A). […]

Jurkat J-27 T cells = experiment: AICD of Jurkat J-27 T cells, apoptotic nuclei by DNA fragmentation; type: cell-based; details: J-27 cells
Protocol: J-27 T cells were induced either with PMA (10 ng/ml) Sigma (St. Louis, MO, USA) and ionomycin (0.5 µM), Calbiochem (Bad Soden/Ts, Germany) or with plate bound α-CD3 (OKT3, 50 µg/ml) for 24 h in the presence of vitamin E or equal amount of the vitamin E solvent ethanol. Apoptotic nuclei were measured by determination of DNA fragmentation (Dhein et al., Nature 373 (1995), 438).
J-27 cells were stimulated in the absence or presence of CD95-Fc (50 µg/ml) or NOKI (50 µg/ml). BD-Pharmingen (Heidelberg, Germany), for 24 h.
To further investigate the molecular mechanism by which vitamin E attenuates AICD, several Jurkat T cell sub-clones susceptible to T-cell-receptor (TCR)-mediated-activation-induced apoptosis were selected. Data from one of the representative clones, clone 27 (J-27) is presented here. Activation of T cells through the T cell receptor can be mimicked by stimulation with the phorbol ester (PMA) and calcium ionophores (ionomycin). […] Therefore, it is unlikely that vitamin E directly interferes with signals downstream of the CD95 receptor. […] Thus, vitamin E may reduce CD95L expression at the transcriptional level and, therefore, attenuate AICD in J-27 cells. Experimental details are given in the legend to Figure 2.

[2] = tested on: peripheral blood lymphocytes of HIV positive individuals; experiment: AICD of peripheral blood lymphocytes of HIV positive individuals stimulated with plate bound α-CD3; type: cell-based, human
Protocol: Peripheral blood lymphocytes from HIV positive individuals (n = 33 Patients) and uninfected donors (11 Donors) were stimulated with plate bound (α-CD3 (50 µg/ml) for 48 h. Apoptosis was assessed by a drop in the forward to side scatter profile of apoptotic in comparison to living cells. The mean difference between patients and uninfected individuals is -7.23. 95% confidence interval is -13.7, -2.12.
Freshly isolated blood lymphocytes from 31 HIV positive individuals were stimulated with plate bound α-CD3 in the absence or presence of either 50 µg/ml CD95-Fc or 25 µM vitamin E (VE) (added 1 h before stimulation). IgG-1 (50 µg/ml), Sigma (St. Louis, MO, USA) was used as control. Cell death was assessed after 48 h stimulation.
To determine if vitamin E could reduce depletion of T cells from HIV positive individuals next the effects of vitamin E on AICD in peripheral blood lymphocytes of such individuals were analyzed. […] As opposed to lymphocytes from healthy donors lymphocytes isolated from HIV-infected individuals were more susceptible to apoptosis (Fig. 6A). […] Experimental details are given in the legend to Figure 6.

CD95L promoter = experiment: Luciferase reporter assay in transiently transfected J-27 T cells, 0.86-kb CD95L promoter; type: cell-based; details: J-27 cells, 50 µM vitamin E 1 h, PMA/ionomycin 8 h (Fig. 4)
Excerpt: (§1) J-27 T cells were transiently transfected with the luciferase reporter constructs containing the 0.86-kb CD95L promoter (Li-Weber et al., Eur. J. Immunol. 30 (2000), 661), or three copies of the NF-κB binding sites at -530 or -50 region (Li-Weber et al., Eur. J. Immunol. 30 (2000), 661) or the AP-1 motif at +90 region (Eichhorst et al., Mol. Cell. Biol. 20 (2000), 7826) of the CD95L promoter as described in Li-Weber et al., 2000. All promoter constructs are described in the cited references. A luciferase reporter construct containing three copies of the Egr consensus binding site was used as a control (Li-Weber et al., Eur. J. Immunol. 29 (1999), 3017). After overnight culture, the cells were divided and treated with vitamin E (VE) (50 µM) or the vitamin E solvent ethanol for 1 h and than further cultured in the absence (empty box) or presence (black box) of PMA (10 ng/ml) and ionomycin (0.5 µM). Luciferase activity was determined after 8 h of stimulation. Results represent the average of three to five independent transfection experiments.
(§2) To further investigate the effect of vitamin E on CD95L expression, the CD95L promoter (-860 to +100) or a minimal TATA promoter containing three copies of either the NF-B or the AP1 sites of the CD95L promoter were linked to the luciferase reporter gene and these constructs were transiently transfected into J-27 T cells. […]

NF-κB = experiment: Luciferase reporter assay in J-27 T cells, three copies of the CD95L promoter NF-κB binding sites; type: cell-based; details: J-27 cells, 50 µM vitamin E 1 h, PMA/ionomycin 8 h (Fig. 4)
Excerpt: as §1, §2

CD95L mRNA = CD95L mRNA levels by RT-PCR in day 6 T cells stimulated with plate bound α-CD3; type: cell-based, human; details: 25 µM vitamin E 1 h, then α-CD3 12 h (Fig. 1B)
Protocol: The day 6 T cells were cultured in the absence or presence of 25 µM vitamin E for 1 h and then stimulated for 12 h with plate bound α-CD3. The mRNA was analyzed by RT-PCR using primers specific for CD95L (Eichhorst et al., Mol. Cell. Biol. 20 (2000), 7826) . For controls, primers for IFNγ and β-actin were used. The primers had the following sequences: • CD95L: sense-5'-[…]-3' antisense-5'[…]-3' • IFN-γ: sense-5'[…]-3' antisense-5'[…]-3' • human β-actin: sense-5'[…]-3' antisense-5'[…]-3'
(§3) Since activation-induced-cell-death (AICD) is a major cause of T cell depletion in AIDS and since supplementation of vitamin E is shown to increase T cell numbers, it was investigated whether vitamin E could protect from T cell depletion by AICD. To analyze the effect of vitamin E on T cell death, freshly isolated peripheral blood T cells were prestimulated for 6 days (referred to as day 6 cells) and subsequently restimulated via the TCR by plate-bound α-CD3 antibodies. […] CD95 (APO-1/Fas) and its ligand (CD95L) are known to play a major role in AICD of T cells. […] The concentration of vitamin E in plasma from healthy individuals normally ranges from 12-35 µM. Thus, vitamin E at physiological concentrations may attenuate AICD. Indeed, depending on the blood donors, vitamin E reduced AICD by 20-50%. […]

[3] = tested on: human peripheral blood T cells; experiment: AICD of day 6 prestimulated peripheral blood T cells restimulated with plate-bound α-CD3, cell death by propidium iodide uptake; type: cell-based; details: depending on the blood donors; vitamin E at physiological concentrations
Protocol: Freshly isolated blood T cells were stimulated by PHA and cultured in the presence of IL-2 for 6 days as described in Klas et al., Int. Immunol. 5 (1993), 625. The day 6 prestimulated T cells were then treated without or with 25 µM vitamin E (VE) Sigma (St. Louis, MO, USA) for 1 h and subsequently cultured in 96-well-flat-bottomed plates coated with α-CD3 (OKT3, 50 µg/ml; (DKFZ, Prof. Krammer) in the absence or presence of CD95-Fc (50 µg/ml; (DKFZ, Prof. Krammer, Dhein et al., Nature 373 (1995), 438) or control human (50 µg/ml) IgG-1. Cell death was assessed after a further 48 h by propidium iodide (PI) uptake (Klas et al., Int. Immunol. 5 (1993), 625.
as §3, with “AICD.” for “AICD. Indeed, depending on the blood donors, vitamin E reduced AICD by 20-50%.”

AP-1 [4] = experiment: Luciferase reporter assay in J-27 T cells, three copies of the CD95L promoter AP-1 motif; type: cell-based; details: J-27 cells, 50 µM vitamin E 1 h, PMA/ionomycin 8 h (Fig. 4)
Excerpt: as §1, §2

Cc1c(C)c2c(c(C)c1O)CC[C@@](C)(CCC[C@H](C)CCC[C@H](C)CCCC(C)C)O2 [vitamin E, α-tocopherol]
binding of AP-1 to its binding site of the CD95L promoter (+90 region) (AP-1 [1]): prevented binding
PMA/ionomycin-induced cell death (Jurkat J-27 T cells; PMA 10 ng/ml and ionomycin 0.5 µM, 24 h (Fig. 2A, B)): significantly reduced
α-CD3-induced cell death (Jurkat J-27 T cells; plate bound α-CD3 (OKT3, 50 µg/ml) 24 h (Fig. 2A, B)): significantly reduced
AICD ([2]; 31 HIV positive individuals, α-CD3, 25 µM vitamin E added 1 h before stimulation, 48 h (Fig. 6B)): greatly reduced
reduction of AICD compared with that obtained by CD95-Fc ([2]; HIV positive individuals, 25 µM vitamin E vs 50 µg/ml CD95-Fc (Fig. 6B)): even more pronounced
luciferase expression driven by the CD95L promoter (CD95L promoter): greatly reduced
luciferase expression driven by the NF-κB site of the CD95L promoter (NF-κB): greatly reduced
increase of CD95L mRNA expression upon restimulation (CD95L mRNA): blocked
reduced AICD [3]: 20-50%
luciferase expression driven by the AP-1 site of the CD95L promoter (AP-1 [4]): greatly reduced

Reference: patent EP1273297A1, “Vitamin E for the treatment of diseases in which the binding of the transcription factor NF-KB and/or AP-1 to promoter target sites has a beneficial effect (eg AIDS, cardiac infarction)” (Deutsches Krebsforschungszentrum Stiftung des öffentlichen …, priority 2001, dated 2003)
